According to US20100316677A1, “USE OF BAMBOO LEAF TOTAL FLAVONES IN THE PREPARATION OF MEDICINE AND HEALTH FOOD FOR PREVENTION AND TREATMENT OF PROSTATIC DISEASES” (ZHEJIANG UNIVERSITY (HANGZHOU) LEAF BIO-TECHNOLOGY CO., LTD., priority 2003, published 2010):

How the values were obtained:
[1] = system: prostatic hyperplasia caused by testosterone propionate; experiment: prostatic hyperplasia caused by testosterone propionate; assay type: in vivo, ICR mice; settings: testosterone propionate mice, 0.5 mg/kg sc once every 3 days, 5 times
Experimental: Randomly assign ICR mice, male, body weight 18-21g, into 7 groups, 10-11 mice in each group: (1) controlled group: water of equal volume, 0.8 mL/20 g, ig; (2) model group: 0.8 mL/20 g water of equal volume, ig; (3) estradiol group: estradiol 0.5 mg/kg, sc, once every 3 days, for 5 times; (4) high-dose group: EOB-f01 400 mg/kg ig; (5) moderate-dose group: EOB-f01 200 mg/kg, ig; (6) low-dose group: EOB-f01 100 mg/kg, ig. Once per day, for 14 days. Except the controlled group (1), various groups (2)-(6) with testosterone propionate 5 mg/mL per day, sc, for 14 d. On the fifteenth day, sacrifice the mice, anatomize them, take and weigh the abdominal, side, and back parts of the prostate, and evaluate anti-hyperplasia effects of EOB-f01.

[2] = system: growth of the prostate and accessorial sex organs; experiment: growth of the prostate and the accessorial sex organs of young mice; assay type: in vivo, ICR young male mice; settings: 0.5 mg/kg sc once every 3 days, 5 times
Experimental: Assign ICR young male mice, body weight 10-12 g, into groups according to their body weight, 10-11 mice in each group: (1) controlled group: water of equal volume, 0.8 mL/20 g, ig; (2) estradiol group: estradiol 0.5 mg/kg, sc, once every 3 days, for 5 times; (3) high-dose group: EOB-f01 400 mg/kg, ig; (4) moderate-dose group: EOB-f01 200 mg/kg, ig; (5) low-dose group: EOB-f01 100 mg/kg, ig. Once per day, for 14 days. On the fifteenth day, sacrifice the mice, anatomize and weigh the abdominal, side, and back parts of the prostate, and seminal vesicle, testis, and elevator ani muscle.

[3] = system: swelling of ear auricle caused by xylene; experiment: swelling of ear auricle of mice caused by xylene; assay type: in vivo; settings: 10 mg/kg ig once, blank control 11.4 ± 4.9
Experimental: Assign the mice into 5 groups according to their body weight, 10 mice in each group, as 2.1 section. Give the mice once per day through gastric irrigation (ig), for 7 days (indomethacin, given only once); in 30 min after the final dose, smear the right ear of the mice with xylene, 0.05 ml/mouse, cause inflammation, sacrifice them in 15 min, shear away their left and right ears, punch down their left and right ear slice with 9 mm trephine, and weigh them, taking the difference of weights between left and right ear slices as the swelling rate. Judge the effects compared with those of the controlled groups.

[4] = system: swelling of ear auricle caused by croton oil; experiment: swelling of ear auricle of mice caused by croton oil; assay type: in vivo; settings: 10 mg/kg ig once, blank control 19.8 ± 2.9
Experimental: Randomly assign mice into 5 groups, 12 mice in each group, as follows: (1) Blank-controlled group: saline of equal volume, 0.8 mL/20 g; (2) Positive-controlled group: indomethacin 10 mg/kg; (3) High-dose group: 10 mg/mL EOB-f01, 400 mg/kg; (4) moderate-dose group: 5 mg/mL EOB-f01, 200 mg/kg; (5) Low-dose group: 2.5 mg/mL EOB-f01, 100 mg/kg. The animals received the administration through gastric irrigation (ig). once per day for 7 continuous days (for indomethacin, only once); in 1 h after the final dose, smear the right ear of the mice with 2% croton oil, 0.02 ml/mouse, cause inflammation, sacrifice them after 4 h, shear away their left and right ears, punch down their left and right ear slice with 9 mm trephine, and weigh them, taking the difference of weights between left and right ear slices as the swelling rate.

[5] = system: prostatitis caused by carrageenan; experiment: prostatitis caused by carrageenan (prostate weight, histopathology); assay type: in vivo, SD male rats; settings: carrageenan rats
Experimental: […] Give the rats through gastric irrigation once per day, for 7 days (indomethacin, only once prior to operation), and begin the operation in 0.5 h after the final dose.
Conduct anesthesia for the rats, then fix them in supine position, shear off hair at their abdomen, and sterilized by iodine tinture; under sterilized condition, cut 1.5 cm at the center of their abdomen, expose the abdominal part of prostate, inject rats in (2)-(6) groups with 1% carrageenan saline, 0.02 mL/rat, with No. 4.5 syringe, immediately return the prostate to the abdominal cavity, add 1 drop of penicillin in the abdominal cavity, and immediately suture the abdominal cavity by two-layer ways. Replace carrageenan with saline 0.02 mL/rat, for rat in the controlled group (1), and conduct pseudo-operation. In 4 h after operation, sacrifice the rats, anatomize and separate each part of the prostate, weigh wet weight, and compare swelling extents between the dose groups and the model group. Take the abdominal part of the prostate of rats, fix with 10% formalin, dehydrate routinely, imbedded with paraffin, slice up, conduct HE staining, and observe pathological changes under a microscope.
Observation criteria for pathology of prostatic tissue from rats of each group: (1) Score of stroma swelling or blood vessel hyperemia: no stroma swelling or blood vessel hyperemia, 0; mild stroma swelling or blood vessel hyperemia, 1; moderate stroma swelling or blood vessel hyperemia, 2; severe stroma swelling or blood vessel hyperemia, 3; (2) Score of infiltration of inflammatory cells: no stroma inflammatory cells, 0; small amount of stroma inflammatory cells, 1; moderate amount of stroma inflammatory cells, 2; high amount of stroma inflammatory cells, 3; stroma diffuse inflammatory cells, 4.

Row | SMILES | Prostate weights, Back part ([1]; model 7.8 ± 1.8) | Prostate weights, Abdominal part ([1]; model 11.3 ± 2.8) | Prostate weights, Side part ([1]; model 23.6 ± 6.2) | Prostate weights, Back part ([2]; blank control 4.2 ± 1.5) | Prostate weights, Abdominal part ([2]; blank control 6.7 ± 1.1) | Prostate weights, Side part ([2]; blank control 9.6 ± 3.3) | Seminal vesicle ([2]; organ weight, blank control 34.1 ± 11.3) | Elevator ani muscle ([2]; organ weight, blank control 42.5 ± 10.6) | Testis ([2]; organ weight, blank control 151.3 ± 28.2) | Swelling rate of ear auricle [3] | Swelling rate of ear auricle [4] | Prostate weights, Side part ([5]; 12 mg/kg ig once, model 73.3 ± 17.3) | Prostate weights, Back part ([5]; 12 mg/kg ig once, model 122.1 ± 23.3) | Prostate weights, Abdominal part ([5]; 12 mg/kg ig once, model 466.5 ± 79.1) | Degree of dilation or swelling of stroma blood vessels ([5]; score 0-3, abdominal part of prostate, 10 mg/kg, model 2.6 ± 0.5) | Degree of infiltration of neutrophils ([5]; score 0-4, abdominal part of prostate, 10 mg/kg, model 2.6 ± 1.3)
1 | C[C@]12CC[C@@H]3c4ccc(O)cc4CC[C@H]3[C@@H]1CC[C@@H]2O [Estradiol, estradiol] | 5.1 ± 1.6 mg | 7.0 ± 1.7 mg | 15.1 ± 2.7 mg | 1.1 ± 0.9 mg | 1.7 ± 0.5 mg | 1.5 ± 1.3 mg | 7.3 ± 2.5 mg | 14.1 ± 3.3 mg | 58.0 ± 12.8 mg | – | – | – | – | – | – | –
2 | COc1ccc2c(c1)c(CC(=O)O)c(C)n2C(=O)c1ccc(Cl)cc1 [Indomethacin, indomethacin] | – | – | – | – | – | – | – | – | – | 6.4 ± 2.3 mg | 14.8 ± 5.1 mg | 62.0 ± 12.3 mg | 128.6 ± 20.9 mg | 358.1 ± 79.2 mg | 2.1 ± 2.0 | 2.2 ± 1.3
